In patent US10800789B2, “Antiviral compounds” (Gilead Pharmasset LLC, priority 2012, dated 2020):
Read-outs that look alike come from different tables or passages of the source.

Legend:
[1] = test system: NS5A chimeric genotype 2a JFH-1 replicon with genotype 2b MD2b-1 strain NS5A gene (M31 present); assay: Replicon assay, genotype 2b NS5A chimera; type: cell-based, HCV; conditions: Hepatitis C virus
Procedure: (§1) Evaluation of Cell-Based Anti-HCV Activity:
(§2) Antiviral potency (EC50) was determined using a Renilla luciferase (RLuc)-based HCV replicon reporter assay. To perform the assay for genotype 1 and 2a JFH-1, stable HCV 1a RLuc replicon cells (harboring a dicistronic genotype 1a H77 replicon that encodes a RLuc reporter), stable HCV 1b RLuc replicon cells (harboring a dicistronic genotype 1b Con1 replicon that encodes a RLuc reporter), or stable HCV 2a JFH-1 Rluc replicon cells (harboring a dicistronic genotype 2a JFH-1 replicon that encodes a RLuc reporter; with L31 present in NS5A) were dispensed into 384-well plates for EC50 assays. To perform the assay for genotype 2a (with M31 present in NS5A) or 2b, NS5A chimeric genotype 2a JFH-1 replicons that encodes a RLuc-Neo reporter and either genotype 2a J6 strain NS5A gene or genotype 2b MD2b-1 strain NS5A gene (both with M31 present) respectively, were either transiently transfected (t) into Huh-Lunet cells or were established as stably replicating replicon cells (s) is provided. Either cells were dispensed into 384-well plates for EC50 assays. To perform the assay for genotype 3 and 4, NS5A chimeric genotype 1b Con1 replicons that encodes a Pi-RLuc reporter and either genotype 3a S52 strain NS5A gene or genotype 4a ED43 strain NS5A gene respectively, were transiently transfected (t) into Huh-Lunet cells, which were subsequently dispensed into 384-well plates. Compounds were dissolved in DMSO at a concentration of 10 mM and diluted in DMSO either manually or using an automated pipeting instrument. Serially 3-fold diluted compounds were either manually mixed with cell culture media and added to the seeded cells or directly added to the cells using an automated instrument. DMSO was used as a negative (solvent; no inhibition) control, and the protease inhibitor ITMN-191 was included at a concentration>100×EC50 as a positive control. 72 hours later, cells were lysed and Renilla luciferase activity quantified as recommended by the manufacturer (Promega-Madison, Wis.). Non-linear regression was performed to calculate EC50 values.

[2] = test system: stable HCV 2a JFH-1 Rluc replicon cells (L31 present in NS5A); assay: Renilla luciferase HCV replicon reporter assay, genotype 2a JFH-1; type: cell-based; conditions: Hepatitis C virus
Procedure: as §1, §2

[3] = test system: stable HCV 1b RLuc replicon cells (dicistronic genotype 1b Con1 replicon); assay: Renilla luciferase HCV replicon reporter assay, genotype 1b; type: cell-based; conditions: Hepatitis C virus, 72 h, stable 1b Con1 RLuc replicon cells, 72 hours; read-out: 1b
Procedure: as §1, §2

[4] = test system: stable HCV 1a RLuc replicon cells (dicistronic genotype 1a H77 replicon); assay: Renilla luciferase HCV replicon reporter assay, genotype 1a; type: cell-based; conditions: Hepatitis C virus, 72 h, stable 1a H77 RLuc replicon cells
Procedure: as §1, §2

[5] = test system: NS5A chimeric genotype 1b Con1 replicon with genotype 4a ED43 strain NS5A gene; assay: Replicon assay, genotype 4a NS5A chimera; type: cell-based, HCV; conditions: Hepatitis C virus
[6] = test system: NS5A chimeric genotype 1b Con1 replicon with genotype 3a S52 strain NS5A gene; assay: Replicon assay, genotype 3a NS5A chimera; type: cell-based, HCV; conditions: Hepatitis C virus
[7] = test system: NS5A chimeric genotype 2a JFH-1 replicon with genotype 2a J6 strain NS5A gene (M31 present); assay: Replicon assay, genotype 2a J6 NS5A chimera; type: cell-based, HCV; conditions: Hepatitis C virus
Procedure: as §1, §2

[8] = 2BS, read-out: 2b (s), stably replicating replicon cells (s), activity range
[9] = read-out: 2b (s) (nM), genotype 2b MD2b-1 NS5A chimeric replicon (M31), stably replicating replicon cells (s)
[10] = read-out: 2a JFH (nM), genotype 2a JFH-1 replicon (L31 in NS5A), stable cells
[11] = read-out: 2a JFH, stable 2a JFH-1 Rluc replicon cells, L31 in NS5A, activity range
[12] = read-out: 4a (s) (nM), genotype 4a NS5A chimeric replicon, stable replicon cells (s)
[13] = read-out: 4a (s), (s), activity range
[14] = read-out: 3a (s) (nM), genotype 3a NS5A chimeric replicon, stable replicon cells (s)
[15] = read-out: 3a (s), (s), activity range
[16] = read-out: 2a J6 (t) (nM), genotype 2a J6 NS5A chimeric replicon (M31), transiently transfected (t) into Huh-Lunet cells
[17] = read-out: 2a J6 (t), transiently transfected (t) into Huh-Lunet cells, activity range

| Compound | EC50 [1, 8] | EC50 [1, 9] | EC50 [2, 10] | EC50 [2, 11] | EC50 [3] | EC50 [4] | EC50 ([4]; activity range) | EC50 [5, 12] | EC50 [5, 13] | EC50 [6, 14] | EC50 [6, 15] | EC50 [7, 16] | EC50 [7, 17] |
| --- | --- | --- | --- | --- | --- | --- | --- | --- | --- | --- | --- | --- | --- |
| COC[C@H]1C[C@@H](c2ncc(-c3ccc4c(c3)COc3cc5c(ccc6nc([C@@H]7C[C@H](COC)CN7C(=O)[C@@H](NC(=O)OC)[C@@H](C)OC)[nH]c65)cc3-4)[nH]2)N(C(=O)[C@@H](NC(=O)OC)[C@@H](C)OC)C1 [EX, Methyl {(2S,3R)-3-methoxy-1-[(2S,4S)-2-(9-{2-[(2S,4S)-1-[N-(methoxycarbonyl)-O-methyl-L-threonyl]-4-(methoxymethyl)pyrrolidin-2-yl]-1H-imidazol-5-yl}-1,11-dihydroisochromeno[4′,3′:6,7]naphtho[1,2-d]imidazol-2-yl)-4-(methoxymethyl)pyrrolidin-1-yl]-1-oxobutan-2-yl}carbamate] | 0.1 to 0.999 nM | 0.393 nM | 0.027 nM | < 0.1 nM | 0.197 nM | 0.079 nM | < 0.1 nM | 0.072 nM | < 0.1 nM | 1.69 nM | 1 to 44 nM | 0.052 nM | < 0.1 nM |
| COC(=O)N[C@H](C(=O)N1C[C@@H](F)C[C@H]1c1ncc(-c2ccc3c(c2)COc2cc4c(ccc5nc([C@@H]6CC[C@H](C)N6C(=O)[C@@H](NC(=O)OC)C(C)C)[nH]c54)cc2-3)[nH]1)C(C)C [HS] | 1 to 44 nM | 3.37 nM | 0.022 nM | < 0.1 nM | 0.023 nM | 0.011 nM | < 0.1 nM | 0.008 nM | < 0.1 nM | 0.082 nM | < 0.1 nM | 4.14 nM | 1 to 44 nM |
| COC(=O)N[C@H](C(=O)N1C[C@@H](C)C[C@H]1c1nc2ccc3cc4c(cc3c2[nH]1)OCc1cc(-c2cnc([C@@H]3CC[C@H](C)N3C(=O)[C@@H](NC(=O)OC)C(C)(C)C)[nH]2)ccc1-4)C(C)C [HX] | 1 to 44 nM | 2.92 nM | 0.027 nM | < 0.1 nM | 0.02 nM | 0.011 nM | < 0.1 nM | 0.014 nM | < 0.1 nM | 0.266 nM | 0.1 to 0.999 nM | 3.28 nM | 1 to 44 nM |
| COC(=O)N[C@H](C(=O)N1[C@@H](C)CC[C@H]1c1nc2ccc3cc4c(cc3c2[nH]1)OCc1cc(-c2cnc([C@@H]3[C@@H]5C[C@@H]5CN3C(=O)[C@@H](NC(=O)OC)C3CCOCC3)[nH]2)ccc1-4)C(C)C [HO] | 0.1 to 0.999 nM | 0.639 nM | 0.022 nM | < 0.1 nM | 0.074 nM | 0.059 nM | < 0.1 nM | 0.04 nM | < 0.1 nM | 0.136 nM | 0.1 to 0.999 nM | 0.207 nM | 0.1 to 0.999 nM |
| COC(=O)N[C@H](C(=O)N1CCC[C@H]1c1ncc(-c2ccc3c(c2)COc2cc4c(ccc5nc([C@@H]6CCCN6C(=O)[C@@H](NC(=O)OC)C6CCOCC6)[nH]c54)cc2-3)[nH]1)C1CCOCC1 [HI] | 0.1 to 0.999 nM | 0.203 nM | 0.041 nM | < 0.1 nM | 0.416 nM | 0.203 nM | 0.1 to 0.999 nM | 0.111 nM | 0.1 to 0.999 nM | 0.447 nM | 0.1 to 0.999 nM | 0.2 nM | 0.1 to 0.999 nM |
| CC[C@H]1CC[C@@H](c2nc3ccc4cc5c(cc4c3[nH]2)OCc2cc(-c3cnc([C@@H]4CC[C@H](CC)N4C(=O)[C@@H](NC(=O)OC)C4CCOCC4)[nH]3)ccc2-5)N1C(=O)[C@@H](NC(=O)OC)C(C)C [II] | 0.1 to 0.999 nM | 0.197 nM | 0.029 nM | < 0.1 nM | 0.033 nM | 0.024 nM | < 0.1 nM | 0.016 nM | < 0.1 nM | 0.701 nM | 0.1 to 0.999 nM | 0.209 nM | 0.1 to 0.999 nM |
| CC[C@H]1C[C@@H](c2nc3ccc4cc5c(cc4c3[nH]2)OCc2cc(-c3cnc([C@@H]4CC[C@H](C)N4C(=O)[C@@H](NC(=O)OC)C(C)C)[nH]3)ccc2-5)N(C(=O)[C@H](C)NC(=O)OC)C1 [HK] | 1 to 44 nM | 11.5 nM | 0.034 nM | < 0.1 nM | 0.026 nM | 0.017 nM | < 0.1 nM | 0.02 nM | < 0.1 nM | 0.705 nM | 0.1 to 0.999 nM | 0.878 nM | 0.1 to 0.999 nM |
| CC[C@H]1CC[C@@H](c2nc3ccc4cc5c(cc4c3[nH]2)OCc2cc(-c3cnc([C@@H]4C[C@H](C)CN4C(=O)[C@@H](NC(=O)OC)C(C)C)[nH]3)ccc2-5)N1C(=O)[C@@H](NC(=O)OC)C1CCOCC1 [IS] | < 0.1 nM | 0.083 nM | 0.018 nM | < 0.1 nM | 0.021 nM | 0.017 nM | < 0.1 nM | 0.015 nM | < 0.1 nM | 0.174 nM | 0.1 to 0.999 nM | 0.052 nM | < 0.1 nM |
| COC(=O)N[C@H](C(=O)N1C[C@@H](C)C[C@H]1c1nc2ccc3cc4c(cc3c2[nH]1)OCc1cc(-c2cnc([C@@H]3CC[C@H](C)N3C(=O)[C@@H](NC(=O)OC)C3CCOCC3)[nH]2)ccc1-4)C(C)C [FP, Methyl [(2S)-1-{(2S,4S)-2-[9-(2-{(2S,5S)-1-[(2S)-2-[(methoxycarbonyl)amino]-2-(tetrahydro-2H-pyran-4-yl)acetyl]-5-methylpyrrolidin-2-yl}-1H-imidazol-5-yl)-1,11-dihydroisochromeno[4′,3′:6,7]naphtho[1,2-d]imidazol-2-yl]-4-methylpyrrolidin-1-yl}-3-methyl-1-oxobutan-2-yl]carbamate] | < 0.1 nM | 0.085 nM | 0.016 nM | < 0.1 nM | 0.024 nM | 0.016 nM | < 0.1 nM | 0.017 nM | < 0.1 nM | 0.052 nM | < 0.1 nM | – | – |
| COC(=O)N[C@H](C(=O)N1[C@@H](C)CC[C@H]1c1ncc(-c2ccc3c(c2)COc2cc4c(ccc5nc([C@@H]6C[C@H](C)CN6C(=O)[C@@H](NC(=O)OC)[C@H](C)OC)[nH]c54)cc2-3)[nH]1)C(C)C [FU, Methyl {(2S)-1-[(2S,5S)-2-(5-{2-[(2S,4S)-1-{(2S,3S)-3-methoxy-2-[(methoxycarbonyl)amino]butanoyl}-4-methylpyrrolidin-2-yl]-1,11-dihydroisochromeno[4′,3′:6,7]naphtho[1,2-d]imidazol-9-yl}-1H-imidazol-2-yl)-5-methylpyrrolidin-1-yl]-3-methyl-1-oxobutan-2-yl}carbamate] | 0.1 to 0.999 nM | 0.347 nM | 0.021 nM | < 0.1 nM | 0.032 nM | 0.028 nM | < 0.1 nM | 0.018 nM | < 0.1 nM | 0.337 nM | 0.1 to 0.999 nM | – | – |
| CC[C@H]1CC[C@@H](c2nc3ccc4cc5c(cc4c3[nH]2)OCc2cc(-c3cnc([C@@H]4C[C@@H]6CCC[C@@H]6N4C(=O)[C@@H](NC(=O)OC)[C@@H](C)CC)[nH]3)ccc2-5)N1C(=O)[C@@H](NC(=O)OC)C1CCOCC1 [IX] | 0.1 to 0.999 nM | 0.236 nM | 0.024 nM | < 0.1 nM | 0.052 nM | 0.035 nM | < 0.1 nM | 0.057 nM | < 0.1 nM | 0.246 nM | 0.1 to 0.999 nM | – | – |
